{"source": "ChEMBL document CHEMBL1140349", "about": "“A new simple and high-yield synthesis of suberoylanilide hydroxamic acid and its inhibitory effect alone or in combination with retinoids on proliferation of human prostate cancer cells” (J Med Chem, 2005)", "key": {"LNCaP [1]": {"test_system": "LNCaP", "assay": "Concentration required to inhibit human LNCaP prostate carcinoma cells", "type": "functional, cell-based"}, "LNCaP [2]": {"test_system": "LNCaP", "assay": "Concentration required to inhibit growth of human LNCaP prostate cancer cells", "type": "functional"}}}
{"molecule": "CC1=C(/C=C/C(C)=C/C=C/C(C)=C/C(=O)Nc2ccc(O)cc2)C(C)(C)CCC1n1ccnc1", "note": "(configuration not stated)", "values": [{"measurement": "IC50", "setting": "LNCaP [1]", "value": 5.5, "unit": "µM"}, {"measurement": "Growth inhibition", "setting": "LNCaP [2]", "value": 5, "unit": "µM"}]}
